Source: patent US10806732B2, “Stable anti-neoplastic pharmaceutical composition comprising temozolomide and method of preparing the composition” (DOUBLE BOND PHARMACEUTICAL AB, priority 2016, dated 2020)

Legend:
[1] = oral administration; cited from earlier work
[2] = Stability of TMZ in dextran phosphate gel of pH 7.2-7.4 (prior art BY 11838 C1); format: physicochemical
Description: BY 11838 C1 discloses a combined treatment method for malignant brain tumors. The method comprises surgical excision of the tumor tissue followed by application of TMZ comprised by high substituted dextran phosphate gel of pH 7.2-7.4. The dry weight ratio of TMZ/high substituted dextran phosphate in the preparation is 0.03:1.0. The freeze-dried gel is reconstituted by the addition of sterile water and pH adjusted prior to use, then applied to the wound surface. […] In addition, the structure of highly substituted dextran phosphate contains a large number of di- and tri-substituted phosphoric acid groups, which provide additional cross-linking of macromolecules, which reduces the ability to absorb water and limits the amount of TMZ to 30 mg/g in the gel of highly substituted dextran phosphate. The low concentration of TMZ in the composition implies that the volume must be increased to administrate higher dose of the substance, i.e., the prodrug TMZ, and thus also the amount highly substituted dextran phosphates administered is increased. A 2- or 3-fold increase in the amount of highly substituted dextran phosphates can lead to undesirable reactions associated with the duration of the biodegradation process. […]

Compound: Cn1nnc2c(C(N)=O)ncn2c1=O [TMZ, 4-methyl-5-oxo-2,3,4,6,8-pentazabicyclo[4.3.0]nona-2,7,9-triene-9-carboxamide]
- half-life [1]: 1.8 h
- time to peak plasma concentration [1]: 0.7 h
- stability of TMZ (hydrolysis to AIC) [2]: decomposes
